Paper PMC7788351 (The Journal of Pharmacology and Experimental Therapeutics, 2021)
Where a name gives a salt, the structure may show the parent alone.

Columns and labels:
[1] = tested on: male Sprague-Dawley rats; experiment: In vivo biotelemetry; conditions: s.c., amphetamine 0.1–3 mg/kg, PEA analogs 1–10 mg/kg
[2] = tested on: humans; conditions: ref Chait et al., 1985; cited from earlier work
[3] = molecular target: 5-HT2B (Homo sapiens, UniProt P41595); conditions: ref Schindler et al., 2019; cited from earlier work
[4] = molecular target: T1, α2A (Homo sapiens, UniProt P08913); conditions: ref Schindler et al., 2019; cited from earlier work
T1 sequence (P08913 1-465): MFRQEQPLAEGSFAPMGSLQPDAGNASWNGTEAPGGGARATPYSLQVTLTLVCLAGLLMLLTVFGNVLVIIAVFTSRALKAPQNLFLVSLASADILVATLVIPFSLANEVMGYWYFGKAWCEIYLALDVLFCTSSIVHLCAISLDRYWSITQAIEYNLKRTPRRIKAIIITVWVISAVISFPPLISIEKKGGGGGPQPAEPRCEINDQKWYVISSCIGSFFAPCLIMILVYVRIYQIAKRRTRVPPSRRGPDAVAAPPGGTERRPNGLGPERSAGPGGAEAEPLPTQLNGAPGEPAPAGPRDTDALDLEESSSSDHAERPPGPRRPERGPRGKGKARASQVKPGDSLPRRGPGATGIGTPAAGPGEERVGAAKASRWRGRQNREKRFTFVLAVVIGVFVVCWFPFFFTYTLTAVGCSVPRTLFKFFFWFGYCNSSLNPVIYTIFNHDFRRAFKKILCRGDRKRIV

[5] = molecular target: T2, α2C (Homo sapiens, UniProt P18825); conditions: ref Schindler et al., 2019; cited from earlier work
T2 sequence (P18825 1-462): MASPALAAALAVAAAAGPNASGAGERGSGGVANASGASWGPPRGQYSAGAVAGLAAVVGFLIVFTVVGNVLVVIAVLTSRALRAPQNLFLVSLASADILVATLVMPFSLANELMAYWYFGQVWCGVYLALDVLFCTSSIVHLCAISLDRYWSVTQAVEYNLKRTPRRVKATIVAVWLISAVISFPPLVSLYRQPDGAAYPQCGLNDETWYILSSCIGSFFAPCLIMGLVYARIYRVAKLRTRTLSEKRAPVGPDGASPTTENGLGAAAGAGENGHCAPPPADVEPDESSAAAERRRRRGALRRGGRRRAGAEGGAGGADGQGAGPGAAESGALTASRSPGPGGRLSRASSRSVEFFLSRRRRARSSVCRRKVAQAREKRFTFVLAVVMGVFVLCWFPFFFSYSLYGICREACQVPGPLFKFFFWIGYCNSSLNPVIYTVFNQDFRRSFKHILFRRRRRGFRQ

[6] = molecular target: T3, 5-HT1A (Homo sapiens, UniProt P08908); conditions: ref Schindler et al., 2019; cited from earlier work
T3 sequence (P08908 1-422): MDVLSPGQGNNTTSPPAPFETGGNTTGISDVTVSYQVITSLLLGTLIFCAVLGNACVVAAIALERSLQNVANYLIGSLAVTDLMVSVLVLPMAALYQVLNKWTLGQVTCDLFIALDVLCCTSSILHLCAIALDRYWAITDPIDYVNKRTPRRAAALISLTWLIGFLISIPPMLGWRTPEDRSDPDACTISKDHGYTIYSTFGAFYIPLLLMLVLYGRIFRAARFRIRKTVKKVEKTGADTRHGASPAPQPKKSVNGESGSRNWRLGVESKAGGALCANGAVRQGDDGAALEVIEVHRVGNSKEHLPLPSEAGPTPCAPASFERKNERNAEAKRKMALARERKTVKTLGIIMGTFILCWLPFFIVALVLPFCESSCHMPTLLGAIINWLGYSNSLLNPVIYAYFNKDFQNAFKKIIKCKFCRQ

[7] = tested on: humans; conditions: ref Brauer and de Wit, 1996, Kelly et al., 2006, Harvanko et al., 2016; cited from earlier work
[8] = tested on: rats; conditions: ref Schindler et al., 2019, cited from earlier work

5-HT2B, sequence (P41595 whole entry): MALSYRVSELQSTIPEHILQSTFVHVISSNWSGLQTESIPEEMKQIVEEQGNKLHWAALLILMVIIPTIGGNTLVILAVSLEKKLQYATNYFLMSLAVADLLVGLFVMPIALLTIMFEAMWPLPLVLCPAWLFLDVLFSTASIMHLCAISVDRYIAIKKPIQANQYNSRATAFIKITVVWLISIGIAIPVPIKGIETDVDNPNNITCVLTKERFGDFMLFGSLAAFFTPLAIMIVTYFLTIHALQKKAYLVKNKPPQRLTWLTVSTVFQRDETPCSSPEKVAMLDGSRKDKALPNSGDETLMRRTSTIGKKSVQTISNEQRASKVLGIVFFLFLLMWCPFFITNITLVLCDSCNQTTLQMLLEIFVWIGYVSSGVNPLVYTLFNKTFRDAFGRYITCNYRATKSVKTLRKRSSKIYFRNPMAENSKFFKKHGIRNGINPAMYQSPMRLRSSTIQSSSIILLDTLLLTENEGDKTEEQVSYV

Compound	effect on core body temperature [1]	threshold oral dose that can be discriminated [2] [mg]	Ki [3] [nM]	Ki [4] [nM]	Ki [5] [nM]	Ki [6] [nM]	lowest oral doses that increase BP and HR [7] [mg]	effect on HR or activity ([8]; at the doses tested)	reduction of potency to increase BP compared with amphetamine [8]
C[C@H](N)Cc1ccccc1 [Amphetamine, (S)-amphetamine sulfate]	did not significantly affect body temperature	5	971	420	171	2630	7.5 to 10		
CC(CN)c1ccccc1 (stereo not drawn) [BMPEA, β-methylphenethylamine]								did not increase HR or activity	about 30 fold
